Square brackets hold non-standard residues; d marks the D form. Peptide text beside a SMILES is read from it. pS = N[C@@H](COP(=O)(O)O)C(=O)O

This note sets out measurements from publication PMC11558545, “Mechanistic Insights into the Function of 14-3-3 Proteins as Negative Regulators of Brassinosteroid Signaling in Arabidopsis” (Plant and Cell Physiology, 2024).

Test [1] concerns the target T1, Arabidopsis 14-3-3 isoform kappa (14-3-3κ) (Arabidopsis thaliana, UniProt P48348).
T1 construct: Full-length At14-3-3-κ^1−248 (Uniprot-ID P48348, http://uniprot.org); thioredoxin A (trxA) fusion (N, cleaved yes); 8xHis (N, cleaved yes); StrepII (N, cleaved yes); made in house; host or cells: E. coli BL21 (DE3) RIL
As to the kind of experiment: biochemical. The class given is binding. The text has this: Full-length At14-3-3-κ^1−248 (Uniprot-ID P48348, http://uniprot.org), At14-3-3-λ^1−248 (P48349), At14-3-3-ω^1−259 (Q01525) or C-terminal truncated At14-3-3-κ^1−240, At14-3-3-λ^1−240 or At14-3-3-ω^1−237 isoforms and BIN2^7−380 from Arabidopsis were cloned from synthetic genes codon-optimized for expression in E. coli (Geneart, Thermofisher, Tauberbischofsheim, Germany) into vector pMH-HStrxT providing an N-terminal thioredoxin A (trxA) fusion protein containing 8xHis and StrepII affinity tags, and a tobacco etch virus protease (TEV) recognition site. Protein expression in E. coli BL21 (DE3) RIL grown to OD600nm= 0.6 was induced with 0.2 mM ispropyl β-D-galactoside in terrific broth at 16°C for 16 h. Cells were collected by centrifugation at 4500 × g for 30 min, washed in PBS buffer, centrifuged again at 4500 × g for 15 min and snap-frozen in liquid N2. For protein purification cells were resuspended in buffer A (20 mM Tris–HCl pH 8.0, 500 mM NaCl), and lysed by sonication (Branson DS450). The lysate was cleared by centrifugation at 7000 × g for 60 min and filtrated using a 0.45 µm molecular weight cutoff filter (Pall Corporation, Port Washington, NY, USA). The supernatant was loaded onto a Ni^2+ affinity column (HisTrap HP 5 mL, Cytiva Life Sciences, Freiburg im Breisgau, Germany), washed with buffer A and eluted in buffer A supplemented with 250 mM imidazole pH 8.0. […]

The target of test [2] is T2, 14-3-3 ω (biotinylated dimer on streptavidin chip) (Arabidopsis thaliana, UniProt Q01525).
T2 construct: Full-length At14-3-3-κ^1−248 (Uniprot-ID P48348, http://uniprot.org), At14-3-3-λ^1−248 (P48349), At14-3-3-ω^1−259 (Q01525); thioredoxin A (trxA) fusion (N, cleaved yes); 8xHis (N, cleaved yes); StrepII (N, cleaved yes); biotin (chemical, EZ-Link NHS-Biotin on amines); made in house; host or cells: E. coli BL21 (DE3) RIL
T2 sequence (Q01525 1-259): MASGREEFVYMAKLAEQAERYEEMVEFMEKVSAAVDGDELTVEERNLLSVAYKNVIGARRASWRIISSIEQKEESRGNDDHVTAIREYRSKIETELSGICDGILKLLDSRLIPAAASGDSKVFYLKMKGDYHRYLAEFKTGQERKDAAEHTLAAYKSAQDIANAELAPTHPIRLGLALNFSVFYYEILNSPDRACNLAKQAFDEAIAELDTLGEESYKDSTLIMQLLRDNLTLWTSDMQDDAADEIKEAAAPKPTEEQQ
Nature of the test: Grating coupled interferometry (GCI) binding kinetics versus 14-3-3 ω. The following applies: 25°C, 1-to-1 (2:2) binding model. The protocol:
The binding kinetics of 14-3-3 ω versus the BZR1^169−175 and pBZR1^169−175 peptides (Table 1) were assessed on a Creoptix® WAVE system using a streptavidin-coated 4PCH WAVEchip® (long polycarboxylate matrix; Creoptix AG, Switzerland). Chips were first conditioned with 100 mM sodium borate pH 9.0, 1 m NaCl. Next, after the activation of the chip surface with a 1:1 mix of 400 mM N-(3-dimethylaminopropyl)-N’-ethylcarbodiimide hydrochloride and 100 mM N-[…] hydroxysuccinimide (Xantec, Germany), streptavidin was immobilized on the chip surface through the injection of 50 µg/ml streptavidin (ThermoFisher Scientific 43–4301) in 10 mM sodium acetate pH 5.0 until high density (∼10,000 pg/mm^2) was reached. Biotinylation of 14-3-3 ω for capturing onto streptavidin chip was performed by mixing equimolar amounts of protein and biotin (EZ-Link™ NHS-Biotin ThermoFisher Scientific). A total of 170 µM of 14-3-3 ω were incubated on ice with 170 µM of biotin (previously dissolved in water to 20 mM) for 1.5 min. The biotinylation was performed in 100 mM Hepes pH 8 and 150 mM NaCl. The biotinylated 14-3-3 ω dimer was purified by size exclusion chromatography in 20 mM Hepes pH 7.5 and 150 mM NaCl on a Superdex 10/300 increase column (Cytiva Life Sciences) to verify the homogeneity and to remove excess biotin. Gel-filtrated biotinylated 14-3-3 ω (0.45 mg/ml) was directly immobilized on the streptavidin-coated chip until a density of about 500 pg/ mm^2 was reached. The synthetic BRZ1^169−175 and pBZR1^169−175 peptides were dissolved in 20 mM Hepes and 150 mM NaCl buffer to a final concentration of 10 mM. Kinetic analysis of 14-3-3 ω and BZR1^169−175/pBZR1^169−175 interactions was performed at 25°C by flushing a dilution series of the analyte pBZR1 with a 2 dilution factor starting from 10 µM. Data analysis and data fitting were done using the Creoptix WAVEcontrol® software.

T1 sequence (P48348 whole entry, the tested form may be a part, canonical isoform): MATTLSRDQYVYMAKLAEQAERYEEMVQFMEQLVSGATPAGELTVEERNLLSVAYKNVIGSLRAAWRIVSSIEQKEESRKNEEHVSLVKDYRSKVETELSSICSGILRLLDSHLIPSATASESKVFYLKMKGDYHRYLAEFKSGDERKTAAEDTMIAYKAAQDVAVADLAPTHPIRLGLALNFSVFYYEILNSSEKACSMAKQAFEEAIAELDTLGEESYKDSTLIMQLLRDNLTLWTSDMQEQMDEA

As a reminder, the Kd is the concentration at which binding is half-saturated. In test [1], `CC(C)C[C@H](NC(=O)[C@H](CCC(=O)O)NC(=O)CNC(=O)[C@@H](N)CCCNC(=N)N)C(=O)N[C@@H](Cc1ccccc1)C(=O)N[C@@H](COP(=O)(O)O)C(=O)N[C@@H](C)C(=O)N1CCC[C@H]1C(=O)O` [pBKI1^265-272] (H-RGELF[pS]AP-OH) came in with a Kd of 15.9 ± 0.4 µM.

Regarding `CC[C@H](C)[C@H](NC(=O)[C@@H](N)CCCNC(=N)N)C(=O)N[C@@H](CO)C(=O)N[C@@H](CC(N)=O)C(=O)N[C@@H](COP(=O)(O)O)C(=O)N[C@@H](C)C(=O)N1CCC[C@H]1C(=O)O` [pBZR1^169-175] (H-RISN[pS]AP-OH), the Kd in test [2] (Fig. 2D and text, read-out: KD, dissociation constant (GCI)) was found to be 0.52 µM. In addition, the kon in test [2] (Fig. 2D, read-out: ka, association rate constant) is 1.67e+06 M⁻¹ s⁻¹. In addition, the koff in test [2] (Fig. 2D, read-out: kd, dissociation rate constant) came out at 0.87 s⁻¹.
